Assay results as given in ChEMBL document CHEMBL3638965, “Chemical compounds 542” (2015).

target: DNA gyrase (Escherichia coli, UniProt P0AES4+P0AES6); assay: Fluorescence Polarisation Assay: In a black, 384-well polystyrene assay plate, 30 microliters/well of 5 nM Escherichia coli DNA gyrase A/B tetramer and 130 micrograms/ml of topologically relaxed plasmid containing the triplex-forming sequence […] in an assay buffer consisting of 35 mM Tris-HCl (pH 7.5), 24 mM KCl, 4 mM MgCl2, 2 mM dithiothreitol, 1.8 mM spermidine, 5% (v/v) glycerol, 200 nM bovine serum albumin, 0.8% dimethylsulfoxide, and 0.3 mM ATP may be incubated at ambient temperature for (typically 30 minutes) in the absence or presence of 5-10 different concentrations of test compound. The supercoiling reactions may be quenched by the addition of 10 microliters/well of 40 nM oligodeoxynucleotide probe in 3x triplex-forming buffer consisting of 150 mM NaCl, and 150 mM sodium acetate at pH 3.5. The oligodeoxynucleotide probe may be 5x-BODIPY-FL-labeled […]. After 60 minutes, the fluorescence anisotropy of the BODIPY-FL may be measured in a Tecan Ultra plate reader, using 485 nM.; type: protein-complex assay

Row | Compound | IC50 [nM]
1 | C[C@@H]1CN2c3c(cc4c(Cl)noc4c3F)CC3(C(=O)NC(=O)NC3=O)[C@H]2[C@H](C)O1 | 200
2 | Cc1noc2c(Cl)c3c(nc12)CC1(C(=O)NC(=O)NC1=O)[C@H]1[C@H](C)O[C@H](C)CN31 (relative stereo) | 1800
3 | C[C@@H]1CN2c3c(cc4c(C(N)=O)noc4c3F)CC3(C(=O)NC(=O)NC3=O)[C@H]2[C@H](C)O1 (relative stereo) | 1700
